Source: PubChem BioAssay (NCI)
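Compound exposure: 48 hours, 5 concentrations, 96-well plates. The concentration for full growth arrest is given as TGI.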

Experiments:
Assay in all cases: DTP human tumour cell line panel, 48 h
SK-OV-3 ovarian = tested on: SK-OV-3 ovarian
COLO 205 colon = tested on: COLO 205 colon
CCRF-CEM leukemia = tested on: CCRF-CEM leukemia
SK-MEL-28 melanoma = tested on: SK-MEL-28 melanoma
DU-145 prostate = tested on: DU-145 prostate
IGROV1 ovarian = tested on: IGROV1 ovarian
EKVX NSCLC = tested on: EKVX NSCLC
TK-10 renal = tested on: TK-10 renal
HCT-15 colon = tested on: HCT-15 colon
NCI-H226 lung = tested on: NCI-H226 lung
HCT-116 colon = tested on: HCT-116 colon
SF-295 CNS = tested on: SF-295 CNS

Row | SMILES | TGI (SK-OV-3 ovarian) | TGI (COLO 205 colon) | TGI (CCRF-CEM leukemia) | TGI (SK-MEL-28 melanoma) | TGI (DU-145 prostate) | TGI (IGROV1 ovarian) | TGI (EKVX NSCLC) | TGI (TK-10 renal) | TGI (HCT-15 colon) | TGI (NCI-H226 lung) | TGI (HCT-116 colon) | TGI (SF-295 CNS)
1 | CN(O)C(=O)c1ccc(OCc2cccc(Cl)c2)cc1 | > 100 µM | > 100 µM | > 100 µM | > 100 µM | 98.2 µM | > 100 µM | > 100 µM | > 100 µM | > 100 µM | > 100 µM | > 100 µM | > 82.8 µM
2 | CN(C)c1ccc(/C=C(\NC(=O)c2ccccc2)c2nc3ccccc3c(=O)o2)cc1 | > 100 µM | > 100 µM | > 100 µM | > 100 µM | > 100 µM | > 100 µM | > 100 µM | > 100 µM | > 100 µM | > 100 µM | > 100 µM | > 100 µM
3 | CC(C)(C)c1cc(C(C)(C)C)c(P=C(Cl)Cl)c(C(C)(C)C)c1 (stereo unspecified) | > 100 µM | > 100 µM | > 100 µM | > 100 µM | > 100 µM | > 100 µM | > 100 µM | > 100 µM | > 100 µM | > 100 µM | > 100 µM | > 100 µM
4 | CCOC(=O)C12C3CCC1C2C(=O)C3 (stereo unspecified) | > 100 µM | > 100 µM | > 100 µM | > 100 µM | > 100 µM | > 100 µM | > 100 µM | > 100 µM | > 100 µM | > 100 µM | > 100 µM | > 100 µM
5 | Nc1ccc2c(c1)N(C(=O)CCCC(=O)N1CC(CCl)c3ccc(N)cc31)CC2CCl (stereo unspecified) | 48.6 µM | 2.1 µM | > 20.1 µM | > 14.4 µM | > 21 µM | > 11.3 µM | 7.8 µM | > 48.1 µM | > 14.6 µM | > 50 µM | > 50 µM | > 50 µM
6 | Nc1c(O)c2c(c(O)c1Cl)C(=O)C=CC2=O | > 60.7 µM | 3.32 µM | > 100 µM | 8.68 µM | 5.3 µM | 14 µM | 24.4 µM | 37 µM | > 36.8 µM | 34.3 µM | 7.09 µM | 6.94 µM
7 | Cc1nc(C)c(N2CCN(C(=O)NC(CCC(=O)O)C(=O)O)CC2)c(=O)[nH]1 (stereo unspecified) | > 100 µM | > 100 µM | > 100 µM | > 100 µM | > 100 µM | > 100 µM | > 100 µM | > 100 µM | > 100 µM | > 100 µM | > 100 µM | > 100 µM
8 | COc1ccc(/C=C/C(=O)c2cccc(C(=O)/C=C/c3ccc(OC)c(OC)c3)n2)cc1OC | > 100 µM | > 100 µM | 6.29 µM | 45 µM | > 100 µM | > 95.5 µM | > 100 µM | > 100 µM | 55 µM | > 100 µM | 27.6 µM | > 100 µM
9 | Cc1cccc(/C=N/NC(=S)NC2CCCCC2)n1 | > 100 µM | > 100 µM | > 21.5 µM | > 100 µM | > 100 µM | > 100 µM | > 100 µM | > 100 µM | > 100 µM | > 74.8 µM | 19.4 µM | > 100 µM
10 | COC(=O)C1=C(C(=O)OC)C2(c3ccccc3)c3ccccc3C(=O)C1N2C1CCCCC1 (stereo unspecified) | > 100 µM | 32.8 µM | > 100 µM | > 100 µM | > 100 µM | > 100 µM | > 100 µM | > 100 µM | > 100 µM | > 100 µM | > 100 µM | > 100 µM
11 | N#CCN(Cc1ccccc1)[C@H]1CCC[C@]1(O)/C=C/c1ccc2c(c1)OCO2 | > 100 µM | 30.5 µM | 53.1 µM | 34 µM | > 100 µM | 92.2 µM | > 100 µM | > 100 µM | 60.2 µM | 44.4 µM | – | 31.4 µM
12 | COC(=O)CC(SCCO)SCCO | > 100 µM | > 100 µM | > 100 µM | > 100 µM | > 100 µM | > 100 µM | > 100 µM | > 100 µM | – | > 100 µM | > 100 µM | > 100 µM
13 | COC(=O)/N=[N+](\[O-])C(c1ccc(Cl)cc1)c1ccc(Cl)cc1 | > 100 µM | 59.1 µM | > 100 µM | > 100 µM | > 100 µM | > 100 µM | > 100 µM | > 100 µM | > 100 µM | 89.6 µM | 95.3 µM | –
14 | COP(=N[Si](C)(C)C)(OC)OC | > 100 µM | > 100 µM | > 100 µM | > 100 µM | > 100 µM | > 100 µM | > 100 µM | > 100 µM | > 100 µM | > 100 µM | > 100 µM | –
15 | Clc1ccccc1-c1nn2c(CCCCCCCCc3nnc4sc(-c5ccccc5Cl)nn34)nnc2s1 | > 100 µM | > 100 µM | > 100 µM | > 100 µM | > 100 µM | – | > 100 µM | > 100 µM | > 100 µM | > 100 µM | > 100 µM | > 100 µM
16 | Cc1ccc([N+](=O)[O-])cc1S(=O)(=O)Nc1ccc(C2=NOC(c3ccccc3)C2)cc1 (stereo unspecified) | 56.5 µM | 33.8 µM | 59.2 µM | > 100 µM | 33.9 µM | > 100 µM | 69.1 µM | – | > 100 µM | > 100 µM | 24.1 µM | 19.7 µM
